Assay results published in patent publication US7205298B2, “Substituted triazine kinase inhibitors” (Janssen Pharmaceutica N.V., priority 2002, dated 2007).
pIC50: −log10 of the molar value.

Experiments:
CDK1:Cyclin-B = target: T1, CDK1:Cyclin-B (Homo sapiens, UniProt P06493); assay: CDK1 Screening Assay; format: biochemical
T1 construct: purchased New England Biolabs 6020; host or cells: insect cells
Method: A kinase reaction mixture was prepared containing 50 mM Tris-HCl pH=8, 10 mM MgCl2, 0.1 mM Na3PO4, 1 mM DTT, 10 μM ATP, 0.025 μM biotinylated histone-H1 peptide substrate (also referred to herein as a CDK-1 peptide substrate, see substrate table) and 0.2 μCuries per well ^33P-γ-ATP (2000–3000 Ci/mmol). 70 μL of the kinase reaction mixture was dispensed into the well of a streptavidin coated FlashPlate™ (Cat. # SMP 103, NEN, Boston, Mass.). Then 1 μL of test compound stock in 100% DMSO was added to the wells resulting in a final concentration of 1% DMSO in the reaction with a 100 μl final reaction volume. Next, CDK1:Cyclin-B protein (New England Biolads, infra) was diluted in 50 mM Tris-HCl pH=8.0, 0.1% BSA at a concentration of 1 ng per μL and 30 μl (30 ng enzyme per test well) was added to each well to initiate the reaction. The reaction was incubated for one hour at 30° C. At the end of the 1-hour incubation, the reaction was terminated by aspirating the reaction mixture from the plate and washing the wells twice with PBS containing 100 mM EDTA. The histone-H1 biotinylated peptide substrate became immobilized on the Flashplate™ (Perkin Elmer, NEN Boston, Mass.) and the incorporation of ^33P-γ-ATP was measured by reading the plate on a scintillation counter. Inhibition of the enzymatic activity of CDK1 was measured by observing a reduced amount of ^33P-γ-ATP incorporated into the immobilized peptide.
Assays to test compound inhibition of other kinases were preformed using methods that measure the amount of phosphorylation of a biotinylated peptide substrate. Biotinylated peptide substrates were selected from the literature as appropriate for the enzyme being evaluated. The general procedure used to assay for kinase activity is as follows: a kinase reaction mix was prepared in 50 mM Tris-HCl pH=8, 10 mM MgCl2, 0.1 mM Na3VO4, 1 mM DTT, 10 μM ATP, 0.25–1 μM biotinylated peptide substrate, 0.2–0.8 μCuries per well ^33P-γ-ATP (2000–3000 Ci/mmol). Assay conditions vary slightly for each protein kinase, for example, insulin receptor kinase requires 10 mM MnCl2 for activity and Calmodulin-dependent protein kinase requires calmodulin and 2 mM CaCl2. The reaction mixture was dispensed into the wells of a streptavidin coated Flashplate and 1 μL test compound in 100% DMSO was added to a 100 μL reaction volume resulting in a final concentration of 1% DMSO in the reaction. Enzyme was diluted in 50 mM Tris-HCl pH=8.0, 0.1% BSA and added to each well. The reaction was incubated for one hour at 30° C. in the presence of a test compound. After one hour the reaction mix was aspirated from the plate and the plate was washed with PBS containing 100 mM EDTA. The plate was read on a scintillation counter to determine ^33P-γ-ATP incorporated into the immobilized peptide substrate. Test compounds were assayed in duplicate at 8 concentrations (100 μM, 10 μM, 1 μM, 100 nM, 10 nM, 1 nM, 100 pM, 10 pM). A maximum and minimum signal for the assay was determined on each plate. […] Known inhibitor compounds appropriate for the kinase being assayed were also included on each plate.
The form of VEGF-R (vascular endothelial growth factor receptor-2) used was a fusion protein containing a polyhistidine tag at the N-terminus followed by amino acids 786–1343 of the rat VEGF-R2 kinase domain (GenBank Accession #U93306). The form of CDK1 (cyclin dependent kinase 1) used was isolated from insect cells expressing both the human CDK1 catalytic subunit and its positive regulatory subunit cyclin B (CDK1:cyclin B protein, New England Biolabs, Beverly, Mass., Cat. #6020). The form of CDK4 (cyclin dependent kinase 4) used contains amino acids 769 to 921 of the mouse […] protein found in the GST-retinoblastoma protein construct (Santa Cruz Biotechnology, Santa Cruz, Calif.; Cat. #SC-4112). The form of EGF-R1 (epidermal growth factor receptor 1) used was purified from human A431 cell membranes (Sigma, St. Louis, Mo., Cat.# E3641). […]

Insulin Receptor Kinase = target: T2, Insulin Receptor Kinase (Homo sapiens, UniProt P06213); assay: Kinase selectivity assay Insulin Receptor Kinase; format: biochemical
T2 construct: consists of residues 941–1313 of the cytoplasmic domain of the beta-subunit of the human insulin receptor; purchased BIOMOL SE-195
Method: Assays to test compound inhibition of other kinases were preformed using methods that measure the amount of phosphorylation of a biotinylated peptide substrate. Biotinylated peptide substrates were selected from the literature as appropriate for the enzyme being evaluated. The general procedure used to assay for kinase activity is as follows: a kinase reaction mix was prepared in 50 mM Tris-HCl pH=8, 10 mM MgCl2, 0.1 mM Na3VO4, 1 mM DTT, 10 μM ATP, 0.25–1 μM biotinylated peptide substrate, 0.2–0.8 μCuries per well ^33P-γ-ATP (2000–3000 Ci/mmol). Assay conditions vary slightly for each protein kinase, for example, insulin receptor kinase requires 10 mM MnCl2 for activity and Calmodulin-dependent protein kinase requires calmodulin and 2 mM CaCl2. The reaction mixture was dispensed into the wells of a streptavidin coated Flashplate and 1 μL test compound in 100% DMSO was added to a 100 μL reaction volume resulting in a final concentration of 1% DMSO in the reaction. Enzyme was diluted in 50 mM Tris-HCl pH=8.0, 0.1% BSA and added to each well. The reaction was incubated for one hour at 30° C. in the presence of a test compound. […] The plate was read on a scintillation counter to determine ^33P-γ-ATP incorporated into the immobilized peptide substrate. […] A maximum and minimum signal for the assay was determined on each plate. […]

T1 sequence (P06493 whole entry): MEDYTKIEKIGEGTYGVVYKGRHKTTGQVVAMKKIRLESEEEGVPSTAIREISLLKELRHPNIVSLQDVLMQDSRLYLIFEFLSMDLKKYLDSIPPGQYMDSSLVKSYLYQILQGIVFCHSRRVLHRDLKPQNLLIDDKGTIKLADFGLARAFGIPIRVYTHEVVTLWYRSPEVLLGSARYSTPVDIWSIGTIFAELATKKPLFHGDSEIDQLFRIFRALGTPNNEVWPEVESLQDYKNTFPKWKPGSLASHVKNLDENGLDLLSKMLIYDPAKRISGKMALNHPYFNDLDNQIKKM
T1 sequence (P14635 whole entry partner): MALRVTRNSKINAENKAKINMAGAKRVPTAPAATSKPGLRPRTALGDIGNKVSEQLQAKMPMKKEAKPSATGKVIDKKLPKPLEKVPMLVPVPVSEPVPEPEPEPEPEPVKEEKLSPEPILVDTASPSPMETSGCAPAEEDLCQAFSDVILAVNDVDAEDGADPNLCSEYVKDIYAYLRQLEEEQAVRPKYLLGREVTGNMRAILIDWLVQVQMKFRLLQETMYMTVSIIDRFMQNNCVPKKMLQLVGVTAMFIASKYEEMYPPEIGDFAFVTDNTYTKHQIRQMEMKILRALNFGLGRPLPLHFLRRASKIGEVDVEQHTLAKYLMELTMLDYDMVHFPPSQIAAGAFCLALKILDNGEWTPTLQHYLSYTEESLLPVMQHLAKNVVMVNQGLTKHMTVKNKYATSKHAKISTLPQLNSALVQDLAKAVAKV
T2 sequence (P06213 980-1352): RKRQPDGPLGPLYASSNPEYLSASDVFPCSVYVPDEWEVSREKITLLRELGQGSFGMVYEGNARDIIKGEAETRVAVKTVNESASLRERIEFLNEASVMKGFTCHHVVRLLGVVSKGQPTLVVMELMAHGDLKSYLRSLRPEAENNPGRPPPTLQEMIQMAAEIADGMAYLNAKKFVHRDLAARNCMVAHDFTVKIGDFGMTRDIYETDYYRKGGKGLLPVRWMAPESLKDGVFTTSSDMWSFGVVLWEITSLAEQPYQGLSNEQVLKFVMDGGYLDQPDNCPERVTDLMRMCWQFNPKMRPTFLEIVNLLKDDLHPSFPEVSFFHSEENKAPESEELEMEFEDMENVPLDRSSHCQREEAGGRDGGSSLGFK

Row | Compound | pIC50 (CDK1:Cyclin-B) | pIC50 (Insulin Receptor Kinase)
1 | OCCCNc1cncc(-c2ncnc(Nc3cccc(Cl)c3)n2)c1 [Compound 1, 3-((5-(4-((3-chlorophenyl)amino)-1,3,5-triazin-2-yl)-3-pyridinyl)amino)-1-propanol] | 7.41 | 4.74
2 | OCCCNc1cc(-c2ncnc(Nc3cccc(Cl)c3)n2)ccn1 [Compound 2, 3-((4-(4-((3-chlorophenyl)amino)-1,3,5-triazin-2-yl)-2-pyridinyl)amino)-1-propanol] | 7.80 | < 5.00
